Measurements taken from ChEMBL document CHEMBL1201862, “PubChem BioAssay data set” (2004).
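Cells were grown in 96-well plates and exposed to each compound for 48 hours at five concentrations; endpoints were interpolated linearly between bracketing concentrations, or set to the highest concentration if not reached. GI50 is the concentration that inhibits growth by half.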 Active and inactive are the calls of the source. No stated cut-off is given here; in the data, active = GI50 up to about 1.1 µM and inactive = higher.

How the values were obtained:
Test in all cases: inhibition of tumour cell growth, NCI panel, 48 h
786-0 = system: 786-0
EKVX = system: EKVX
HCC 2998 = system: HCC 2998
HT-29 = system: HT-29
KM12 = system: KM12
M14 = system: M14
MCF7 = system: MCF7
MDA-MB-435 = system: MDA-MB-435
MDA-N = system: MDA-N
NCI-H226 = system: NCI-H226
NCI-H460 = system: NCI-H460
NCI-H522 = system: NCI-H522
NCI/ADR-RES = system: NCI/ADR-RES
OVCAR-5 = system: OVCAR-5
OVCAR-8 = system: OVCAR-8
PC-3 = system: PC-3
SK-MEL-5 = system: SK-MEL-5
TK-10 = system: TK-10
UACC-62 = system: UACC-62
SNB-75 = system: SNB-75

Compound | GI50 (786-0) | GI50 (EKVX) | GI50 (HCC 2998) | GI50 (HT-29) | GI50 (KM12) | GI50 (M14) | GI50 (MCF7) | GI50 (MDA-MB-435) | GI50 (MDA-N) | GI50 (NCI-H226) | GI50 (NCI-H460) | GI50 (NCI-H522) | GI50 (NCI/ADR-RES) | GI50 (OVCAR-5) | GI50 (OVCAR-8) | GI50 (PC-3) | GI50 (SK-MEL-5) | GI50 (TK-10) | GI50 (UACC-62) | GI50 (SNB-75)
COc1ccc(C2c3cc4c(c(OC)c3CC3OCC(=O)C32)OCO4)cc1OC (stereo unspecified) | 0.0348 µM (active) | 0.0605 µM (active) | 0.129 µM (active) | < 0.01 µM (active) | 0.0318 µM (active) | 0.0482 µM (active) | 0.0575 µM (active) | 0.0146 µM (active) | < 0.01 µM (active) | 0.0385 µM (active) | 0.0625 µM (active) | < 0.01 µM (active) | 0.0377 µM (active) | 0.153 µM (active) | 0.0601 µM (active) | 0.0619 µM (active) | 0.037 µM (active) | 60.7 µM (inactive) | 0.0531 µM (active) | –
O=C(Nc1c(Cl)cccc1Cl)c1c(Cl)c(Cl)c(Cl)c(Cl)c1-c1nc2ccccc2[nH]1 | 36.4 µM (inactive) | 9.48 µM (inactive) | 38.5 µM (inactive) | 26 µM (inactive) | 0.155 µM (active) | 22.1 µM (inactive) | 34.6 µM (inactive) | 38.2 µM (inactive) | 36 µM (inactive) | 14.5 µM (inactive) | > 100 µM (inactive) | 37 µM (inactive) | 51.1 µM (inactive) | > 100 µM (inactive) | 33 µM (inactive) | > 100 µM (inactive) | 29.9 µM (inactive) | – | 25.4 µM (inactive) | 0.313 µM (active)
CCC1CCC2c3c([nH]c4ccc(C)cc34)C3C(=O)N(N(C)C)C(=O)C3C2C1 (stereo unspecified) | 7.24 µM (inactive) | 26.7 µM (inactive) | 35.2 µM (inactive) | 7.28 µM (inactive) | 6.52 µM (inactive) | 14.5 µM (inactive) | 3.64 µM (inactive) | 1.37 µM (inactive) | 1.09 µM (active) | > 72.4 µM (inactive) | 7.45 µM (inactive) | 0.748 µM (active) | 4.35 µM (inactive) | > 86.5 µM (inactive) | 22.2 µM (inactive) | 6.22 µM (inactive) | 12.8 µM (inactive) | 32.4 µM (inactive) | 17.6 µM (inactive) | –
Cc1nc(N)c(N2CCN(C(=O)O)CC2)c(O)n1 | > 100 µM (inactive) | > 100 µM (inactive) | > 100 µM (inactive) | > 100 µM (inactive) | > 100 µM (inactive) | > 100 µM (inactive) | > 100 µM (inactive) | > 100 µM (inactive) | > 100 µM (inactive) | > 100 µM (inactive) | > 100 µM (inactive) | > 100 µM (inactive) | > 100 µM (inactive) | > 100 µM (inactive) | > 100 µM (inactive) | > 100 µM (inactive) | – | > 100 µM (inactive) | – | > 100 µM (inactive)
O=S1(=O)OCCOS(=O)(=O)C1(F)Br | > 100 µM (inactive) | > 100 µM (inactive) | > 100 µM (inactive) | > 100 µM (inactive) | > 100 µM (inactive) | > 100 µM (inactive) | > 100 µM (inactive) | > 100 µM (inactive) | > 100 µM (inactive) | > 100 µM (inactive) | – | > 100 µM (inactive) | > 100 µM (inactive) | > 100 µM (inactive) | > 100 µM (inactive) | > 100 µM (inactive) | > 100 µM (inactive) | > 100 µM (inactive) | > 100 µM (inactive) | > 100 µM (inactive)
COc1ccc(OC)c(C2CCCc3c2cnc2nc(N)nc(N)c32)c1 (stereo unspecified) | < 0.01 µM (active) | > 100 µM (inactive) | < 0.01 µM (active) | < 0.01 µM (active) | 0.0716 µM (active) | < 0.01 µM (active) | < 0.01 µM (active) | < 0.01 µM (active) | < 0.01 µM (active) | > 100 µM (inactive) | < 0.01 µM (active) | < 0.0392 µM (active) | 1.04 µM (active) | – | < 0.01 µM (active) | > 71.1 µM (inactive) | < 0.01 µM (active) | 0.0217 µM (active) | < 0.01 µM (active) | 0.247 µM (active)
Oc1ccc(CNCc2ccccc2)c2cccnc12 | 0.383 µM (active) | 0.495 µM (active) | – | 4.11 µM (inactive) | 0.448 µM (active) | 0.27 µM (active) | 0.11 µM (active) | 0.0841 µM (active) | 0.0762 µM (active) | 5 µM (inactive) | 0.034 µM (active) | 0.222 µM (active) | 0.959 µM (active) | 1.22 µM (inactive) | 0.107 µM (active) | 0.336 µM (active) | 0.191 µM (active) | 0.282 µM (active) | 0.5 µM (active) | 0.0291 µM (active)
O=C1c2c(ccc3c2CCC3)CC12Cc1cc3c(cc1C2)CCC3 | > 100 µM (inactive) | > 100 µM (inactive) | > 100 µM (inactive) | > 100 µM (inactive) | > 100 µM (inactive) | > 100 µM (inactive) | > 100 µM (inactive) | > 100 µM (inactive) | > 100 µM (inactive) | > 100 µM (inactive) | > 100 µM (inactive) | > 100 µM (inactive) | > 100 µM (inactive) | > 100 µM (inactive) | > 100 µM (inactive) | > 100 µM (inactive) | > 100 µM (inactive) | > 100 µM (inactive) | – | 87.7 µM (inactive)
